Some test systems named below: Hs-578T; ACHN; NCI-H522; K562; OVCAR-5; OVCAR-4; LOX IMVI; SK-MEL-28; HT-29; DU-145; CAKI-1; MCF7; M14; UO-31; NCI/ADR-RES; HOP-62; SF-539; MOLT-4; CCRF-CEM; NCI-H226.
Assay in all cases: inhibition of tumour cell growth, NCI panel, 48 h

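Compound exposure: 48 hours, 5 concentrations, 96-well plates. The concentration for 50% growth inhibition is given as GI50.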 Active and inactive are the calls of the source. Rule as the data show it: active = GI50 up to about 1.1 µM and inactive = higher. Some results are limits rather than exact numbers.

As to `CC(=O)Oc1cc2c(cc1OC(C)=O)[C@H]1CC[C@]3(C)[C@@H](OC(C)=O)CC[C@H]3[C@@H]1CC2`, the GI50 in the assay with Hs-578T was 1.87 µM (inactive); with ACHN, 3.56 µM (inactive); in the assay with NCI-H522, 1.16 µM (inactive); with K562 it was 2.23 µM (inactive); in the assay on OVCAR-5, 10.1 µM (inactive); in the assay on OVCAR-4, 5.61 µM (inactive). The GI50 in the assay on LOX IMVI was 2.92 µM (inactive); in the assay with SK-MEL-28, 4.15 µM (inactive); with HT-29 it was 5.14 µM (inactive); with DU-145, 3.15 µM (inactive); in the assay on CAKI-1, 3.22 µM (inactive); in the assay with MCF7, 6.37 µM (inactive). Also, the results for the GI50 in the assay on M14, in the assay with UO-31 and in the assay with NCI/ADR-RES were 6 µM (inactive), 2.19 µM (inactive) and 9.53 µM (inactive), respectively.

Turning to `CC(=O)c1c(C)[n+]([O-])c2cc(Cl)c(Cl)cc2[n+]1[O-]`, the GI50 with HOP-62 was 23.1 µM (inactive); with Hs-578T, 20.7 µM (inactive); in the assay with ACHN, 17.8 µM (inactive); with NCI-H522, 12.6 µM (inactive); in the assay with SF-539 it was 24.7 µM (inactive); in the assay on K562, 19.4 µM (inactive). The GI50 with MOLT-4 is 8.22 µM (inactive); in the assay with OVCAR-5, 38.3 µM (inactive); in the assay on OVCAR-4, 15.6 µM (inactive); with LOX IMVI it was 16.8 µM (inactive); with CCRF-CEM, 13.7 µM (inactive); in the assay on SK-MEL-28 it was 29.8 µM (inactive). The GI50 in the assay with HT-29 is 18.5 µM (inactive); in the assay on DU-145 it was 23.1 µM (inactive); in the assay with CAKI-1, 18.7 µM (inactive); with MCF7, 14.8 µM (inactive); in the assay on M14 it was 24.6 µM (inactive); in the assay on UO-31, 14.9 µM (inactive). Moreover, the GI50 in the assay with NCI/ADR-RES is 16.7 µM (inactive).

In the case of `O=C(/C=C(\S/C=C(/c1ccccc1)N1CCn2c(C(=O)c3ccccc3)c(C(=O)c3ccccc3)c(C(=O)c3ccccc3)c21)C(=O)c1ccccc1)c1ccccc1`, the GI50 with HOP-62, with Hs-578T, with ACHN, in the assay on NCI-H522, in the assay on SF-539 and with K562 was > 10 µM (inactive) throughout. In addition, the GI50 in the assay on MOLT-4, with OVCAR-5, with OVCAR-4, in the assay on CCRF-CEM, in the assay with SK-MEL-28 and with HT-29 was > 10 µM (inactive) in each case. Besides, the GI50 in the assay on DU-145, with CAKI-1, with MCF7, in the assay with M14 and in the assay with NCI/ADR-RES was > 10 µM (inactive) throughout.

Consider `Cn1c2c(c3ccccc31)CC(=O)N1CCCCC1C21OCCO1` (stereo not drawn), for which the GI50 in the assay on HOP-62, in the assay on Hs-578T, in the assay on ACHN, with MOLT-4, in the assay on OVCAR-5 and in the assay on NCI-H226 was > 100 µM (inactive) in each case. In addition, the GI50 in the assay with OVCAR-4, with CCRF-CEM, in the assay on SK-MEL-28, in the assay on HT-29, in the assay with DU-145 and with CAKI-1 was > 100 µM (inactive) each time. In addition, the GI50 in the assay on MCF7, in the assay on M14, in the assay with UO-31 and with NCI/ADR-RES was > 100 µM (inactive) each time.

Turning to `NC(Cc1ccc2nc3c4ccccc4c(=O)cc-3oc2c1)C(=O)O` (stereo not drawn), the GI50 is > 100 µM (inactive) with HOP-62; 56.1 µM (inactive) in the assay with Hs-578T; > 100 µM (inactive) in the assay with ACHN; > 100 µM (inactive) in the assay with SF-539; > 100 µM (inactive) with K562; > 100 µM (inactive) in the assay on OVCAR-5. The GI50 in the assay with OVCAR-4 was > 100 µM (inactive); in the assay with LOX IMVI, 45.8 µM (inactive); with CCRF-CEM, > 100 µM (inactive); in the assay on SK-MEL-28, > 100 µM (inactive); in the assay on HT-29, 71.3 µM (inactive); in the assay with DU-145, > 100 µM (inactive). In addition, the GI50 in the assay on CAKI-1 is > 100 µM (inactive); in the assay with MCF7, 18.4 µM (inactive); in the assay on M14 it was 25.3 µM (inactive); with UO-31, > 100 µM (inactive); in the assay with NCI/ADR-RES it was > 100 µM (inactive).

As to `COc1ccccc1/C(=N\OCCC(=O)O)c1cccs1`, the GI50 in the assay with HOP-62 is > 100 µM (inactive); in the assay with Hs-578T it was 56.6 µM (inactive); with ACHN, > 100 µM (inactive); with SF-539 it was > 100 µM (inactive); in the assay on K562, > 100 µM (inactive); in the assay on MOLT-4 it was > 100 µM (inactive). Further, the GI50 in the assay on OVCAR-5, in the assay on NCI-H226, in the assay with OVCAR-4, in the assay on LOX IMVI, with CCRF-CEM and with SK-MEL-28 was > 100 µM (inactive) in each case. Moreover, the GI50 with HT-29, in the assay with DU-145, with CAKI-1, in the assay on MCF7, in the assay on UO-31 and with NCI/ADR-RES was > 100 µM (inactive) each time.

For `CCOC(=O)C(O)Cc1cnc2ccccc2n1` (stereo not drawn), the GI50 is > 100 µM (inactive) in the assay with HOP-62; > 100 µM (inactive) in the assay with Hs-578T; > 100 µM (inactive) with ACHN; 79.3 µM (inactive) in the assay on NCI-H522; > 100 µM (inactive) in the assay with SF-539; > 100 µM (inactive) in the assay on K562. Moreover, the GI50 in the assay on MOLT-4 was > 100 µM (inactive); in the assay with OVCAR-5, > 100 µM (inactive); with OVCAR-4, > 100 µM (inactive); in the assay on LOX IMVI, > 100 µM (inactive); in the assay on CCRF-CEM, 44.9 µM (inactive); in the assay with SK-MEL-28, > 100 µM (inactive). The GI50 in the assay with HT-29 was > 100 µM (inactive); in the assay with DU-145, > 100 µM (inactive); in the assay on CAKI-1, > 100 µM (inactive); in the assay on MCF7 it was 80.7 µM (inactive); with M14 it was > 100 µM (inactive); with UO-31, > 100 µM (inactive). Also, in the assay with NCI/ADR-RES, the GI50 was > 100 µM (inactive).

Consider `CC1CNC(c2ccc(COc3ccc(C4=NC(C)CN4)cc3)cc2)=N1` (stereo not drawn), for which the GI50 in the assay on HOP-62 was 32.8 µM (inactive); with Hs-578T, 22.9 µM (inactive); with ACHN, > 100 µM (inactive); with NCI-H522 it was 39 µM (inactive); with SF-539 it was 54.8 µM (inactive); in the assay on K562, 15.5 µM (inactive). Further, the GI50 in the assay on MOLT-4 is > 100 µM (inactive); in the assay with OVCAR-5, > 100 µM (inactive); with OVCAR-4 it was > 100 µM (inactive); with LOX IMVI, > 100 µM (inactive); in the assay with CCRF-CEM it was 59.6 µM (inactive); with SK-MEL-28, 41.8 µM (inactive). For the same compound, the GI50 in the assay with HT-29 is > 100 µM (inactive); with DU-145, > 100 µM (inactive); in the assay with CAKI-1, > 100 µM (inactive); in the assay on MCF7, 18.3 µM (inactive); with M14, 60.1 µM (inactive); in the assay on UO-31 it was > 100 µM (inactive). Also, in the assay on NCI/ADR-RES, the GI50 is > 100 µM (inactive).

Turning to `CCOC(=O)c1cc(NC(=O)N(CCC#N)CCN(C(=O)N[C@@H](Cc2ccccc2)C(=O)N[C@@H](CC(C)C)C(=O)NC)c2ccccc2)ccc1OC`, the GI50 in the assay on HOP-62 is 41.8 µM (inactive); in the assay with Hs-578T, 42.2 µM (inactive); in the assay with ACHN, 25.3 µM (inactive); with SF-539, 31.3 µM (inactive); in the assay with MOLT-4 it was 23.4 µM (inactive); in the assay on OVCAR-5 it was > 100 µM (inactive). For the same compound, the GI50 with NCI-H226 is 35.5 µM (inactive); in the assay on OVCAR-4 it was 44 µM (inactive); in the assay with LOX IMVI, 18.2 µM (inactive); with CCRF-CEM it was 89.9 µM (inactive); in the assay on SK-MEL-28, 28.9 µM (inactive); in the assay on DU-145, 44.6 µM (inactive). The GI50 with CAKI-1 was > 100 µM (inactive); in the assay on MCF7 it was 58.6 µM (inactive); in the assay with M14, 99.5 µM (inactive); with UO-31, 34.4 µM (inactive); in the assay on NCI/ADR-RES, > 100 µM (inactive).

`Cc1ccccc1-c1nc2c(N)nc(N)nc2nc1N`: the GI50 with HOP-62 is 25.9 µM (inactive); in the assay on Hs-578T, > 100 µM (inactive); in the assay with ACHN, 5.6 µM (inactive); with NCI-H522, 22.6 µM (inactive); in the assay on SF-539 it was 22.5 µM (inactive); with K562, 0.723 µM (active). In addition, the GI50 in the assay on MOLT-4 was 3.77 µM (inactive); in the assay on OVCAR-5 it was 39.9 µM (inactive); with OVCAR-4 it was > 100 µM (inactive); in the assay on LOX IMVI, 3.44 µM (inactive); in the assay on CCRF-CEM, 4.74 µM (inactive); in the assay on SK-MEL-28, 67.9 µM (inactive). Further, the GI50 in the assay on HT-29 is > 100 µM (inactive); with DU-145, 8.17 µM (inactive); with CAKI-1, 9.35 µM (inactive); in the assay with MCF7, 30.2 µM (inactive); with M14, > 100 µM (inactive); in the assay with UO-31, 12 µM (inactive). Besides, in the assay on NCI/ADR-RES, the GI50 is 27 µM (inactive).

With `OB1OCc2ccccc21` [BENZOXABOROLE], the GI50 in the assay on HOP-62 is 26.7 µM (inactive); with Hs-578T, 62.1 µM (inactive); in the assay on SF-539, 25.1 µM (inactive); in the assay with K562 it was 67.8 µM (inactive); in the assay on MOLT-4, 69.8 µM (inactive); in the assay with NCI-H226 it was 39.5 µM (inactive). Further, the GI50 in the assay with OVCAR-4 is 32.4 µM (inactive); in the assay with LOX IMVI, 39 µM (inactive); in the assay on CCRF-CEM, 18 µM (inactive); in the assay with SK-MEL-28 it was 21.6 µM (inactive); in the assay on HT-29, 26.7 µM (inactive); in the assay on DU-145 it was > 100 µM (inactive). The GI50 with CAKI-1 is 34.7 µM (inactive); with MCF7, 24.9 µM (inactive); in the assay on M14, 55.3 µM (inactive); with UO-31, 32.4 µM (inactive); in the assay on NCI/ADR-RES, 22.3 µM (inactive).

The values above are taken from ChEMBL document CHEMBL1201862, “PubChem BioAssay data set” (2004).
